In publication PMC8999917, “Structure–Activity Relationship of Synthetic Ginkgolic Acid Analogs for Treating Type 2 Diabetes by PTPN9 Inhibition” (International Journal of Molecular Sciences, 2022):

Legend:
[1] = system: Akt phosphorylation in PA-induced insulin-resistant C2C12 cells; assay: Palmitic acid-induced insulin resistance in C2C12 myotubes (p-Akt); format: cell-based, mouse; conditions: PA (250 µM, 16 h)-treated C2C12, 5 μM compound for 30 min with 100 nM insulin
Procedure: Since insulin plays an important role in regulating glucose metabolism through the redistribution of GLUT4 from intracellular vesicles to the cell surface, it is important to describe the interaction between 1e and insulin in the Akt pathway. […] Next, we evaluated the protective effects of 1e against PA-induced insulin resistance in C2C12 myotubes. To generate an insulin resistance model, C2C12 myotubes were treated with 250 µM PA in a serum-free medium for 16 h. Akt phosphorylation levels in PA-treated C2C12 cells decreased by 50% compared to levels in normal C2C12 cells (Figure 6C). Furthermore, in the presence of insulin and GA, Akt phosphorylation levels decreased only by 30% compared to levels in normal cells. […] In addition, the GA analogs induced no cytotoxic effects in C2C12 muscle cells (data not shown). […] The expression levels of glucose uptake-related proteins were determined via Western blotting, as previously described. In brief, differentiated 3T3-L1 cells were plated in six-well plates at a 1.5 × 10^4 cells/well density in a final volume of 2 mL. […] Secondary antibodies were added to the membranes at a concentration of 1:2000 for 1 h at room temperature, and immunoreactive bands were detected via ECL (GE Healthcare Korea Co., Ltd., Incheon, Korea). […]

[2] = target: T1, PTPN9 (Homo sapiens, UniProt P43378); assay: PTPN9 enzyme inhibition with DiFMUP substrate; format: biochemical; conditions: DiFMUP 220 µM, PTPN9 0.15 nM; NA: no activity
T1 construct: made in house; host or cells: Escherichia coli Rosetta (DE3)
T1 sequence (P43378 277-581): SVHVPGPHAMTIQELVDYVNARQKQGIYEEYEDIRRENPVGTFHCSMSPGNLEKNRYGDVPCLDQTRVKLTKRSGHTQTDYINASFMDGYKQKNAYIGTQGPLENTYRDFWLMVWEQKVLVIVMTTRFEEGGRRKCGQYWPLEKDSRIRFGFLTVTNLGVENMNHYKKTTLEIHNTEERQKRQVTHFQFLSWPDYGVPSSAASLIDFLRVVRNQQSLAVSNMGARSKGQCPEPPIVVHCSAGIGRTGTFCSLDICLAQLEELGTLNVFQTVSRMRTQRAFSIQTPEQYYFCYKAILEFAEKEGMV
Procedure: (§1) The purification and kinetic analyses of PTPN9 and DUSP9 (Ser277–581) were performed following methods described in the literature, with slight modifications. PAGE analysis data and enzyme kinetic constants are presented in Figure S1 and Table S1, respectively. Enzyme activity in the presence or absence of the compounds was measured using DiFMUP, a representative PTP fluorogenic substrate. First, the inhibitory effects of compounds 1–3 were evaluated using 50 µM PTPN9 and 20 µM DUSP9. There was an increase in the inhibitory activity of compound 1 for both enzymes as the number of CH2 units increased from 9 to 14 (Figure 2A,B).
(§2) Next, the IC50 values of the compounds, which induce a 50% inhibition of DiFMUP hydrolytic enzyme activity, were determined (Table 1). The IC50 values were determined from the dose–response enzyme inhibition curves of each compound. The dose–response curves for compounds 1e and 1f against PTPN9 and DUSP9, respectively, are presented in Figure 2C,D. Dose–response curves were also obtained for the other compounds (Figures S2 and S3).
(§3) The methods employed for PTP overexpression and purification have been described in a previous study. In brief, human PTPN9 and DUSP9 were cloned into a pET28a vector (Merk Millipore, Darmstadt, Germany) containing a hexahistidine (His6) tag or a maltose-binding protein (MBP) tag in its N-terminus (see Supplementary Materials). Recombinant genes were separately transformed into Escherichia coli Rosetta (DE3) (Merk Millipore, Darmstadt, Germany), and the overexpression of each gene was induced via the addition of 0.1 mM IPTG (Ducherfa Biochemie, Haarlem, RV, USA). After 16 h of incubation at 18 °C, cell pellets were obtained via centrifugation (3570× g at 4 °C for 15 min), resuspended in lysis buffer (50 mM Tris, pH: 7.5, 500 mM NaCl, 5% glycerol, 0.025% 2-mercaptoethanol, and 1 mM phenyl-methylsulfonyl fluoride (PMSF)), and lysed by ultrasonication. Subsequently, cell lysates were centrifuged at 29,820× g for 30 min at 4 °C; then, the supernatant was collected and incubated with a cobalt affinity resin (TALON® Metal Affinity Resin, Takara Korea, Seoul, Korea). After 1 h of incubation at 4 °C, the desired proteins were eluted by adding the lysis buffer supplemented with 100 mM imidazole. Samples were stored at –80 °C until use.
(§4) The enzymatic activities of purified PTPN9 and DUSP9 were measured using 6,8-difluoro-4-methylumbelliferyl phosphate (DiFMUP), the most widely used fluorogenic PTP substrate in the literature. To determine KM values, PTPN9 (0.15 nM) and DUSP9 (200 nM) were added to a reaction buffer (20 mM Bis-tris, pH: 7.0, 150 mM NaCl, 2.5 mM dithiothreitol (DTT), and 0.01% Triton X-100) containing DiFMUP (800, 400, 200, 100, 50, 25, 12.5, or 6.25 μM) in a 96-well black plate. The final reaction volume was 100 µL. The fluorescence intensity was continuously monitored for 10 min (Ex/Em = 355/460 nm) on a Victor™ X4 multilabel plate reader (Perkin Elmer, Norwalk, CT, USA). KM values were obtained using Lineweaver–Burk plots analysis.
(§5) To evaluate the enzyme inhibitory effects of GA and its analogs, 10 µl of the enzyme stock solution (1.5 nM PTPN9 and 2 µM DUSP9) in the reaction buffer was added into the mixture of DiFMUP (to a final concentration of 220 µM and 90 µM for PTPN9 and DUSP9, respectively) and each compound (to a final concentration of 50 µM and 20 µM for PTPN9 and DUSP9, respectively) was added to the reaction buffer. Enzyme activity was measured as described above. Half-inhibitory concentration (IC50) values were determined under similar conditions, except for the concentrations of the inhibitors (200, 100, 50, 25, 12.5, 6.25, or 3.125 µM for PTPN9 and 25, 12.5, 6.25, 3.125, 1.563, 0.782, or 0.391 µM for DUSP9). The dose-dependent curve was fitted to the four-parameter logistic regression equation, (y = a + (b – a)/(1 + (x/c)^d), to obtain IC50 values using the Kaleida Graph software Ver. 4.1.3. (Synergy Software Inc, PA, USA).

[3] = target: T2, DUSP9 (Homo sapiens, UniProt Q99956); assay: DUSP9 enzyme inhibition with DiFMUP substrate; format: biochemical; conditions: DiFMUP 90 µM, DUSP9 200 nM; NA: no activity
T2 construct: made in house; host or cells: Escherichia coli Rosetta (DE3)
T2 sequence (Q99956 1-384): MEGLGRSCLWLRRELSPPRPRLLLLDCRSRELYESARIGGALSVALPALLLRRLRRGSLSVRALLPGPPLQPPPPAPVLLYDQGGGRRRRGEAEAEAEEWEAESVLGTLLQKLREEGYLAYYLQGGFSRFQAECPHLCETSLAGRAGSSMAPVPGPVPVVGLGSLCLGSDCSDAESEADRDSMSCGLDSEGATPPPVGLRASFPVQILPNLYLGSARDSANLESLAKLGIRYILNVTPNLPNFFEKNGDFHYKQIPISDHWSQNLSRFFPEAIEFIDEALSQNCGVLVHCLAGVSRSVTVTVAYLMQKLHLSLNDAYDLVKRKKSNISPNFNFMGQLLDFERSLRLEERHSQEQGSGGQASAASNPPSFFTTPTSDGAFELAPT
Procedure: as §1, §2, §3, §4, §5

Question: Which results are given for `CCCCCCCCCCCCCc1cccc(O)c1C(=O)O` [GA, Ginkgolic acid (C13:0), reference compound]?
Answer: decrease of Akt phosphorylation levels compared to normal cells [1]: 30%; IC50 [2]: 21.8 ± 0.45 µM; IC50 [3]: 3.64 ± 0.11 µM
